# Data: patent US20210323977A1, “PYRROLIDINYL AMIDE COMPOUNDS FOR THE TREATMENT OF AUTOIMMUNE DISEASE” (Hoffmann-La Roche Inc., priority 2018, published 2021)
# Biological target: T1, human TLR7 (Homo sapiens, UniProt Q9NYK1)
# T1 sequence (Q9NYK1 27-1049): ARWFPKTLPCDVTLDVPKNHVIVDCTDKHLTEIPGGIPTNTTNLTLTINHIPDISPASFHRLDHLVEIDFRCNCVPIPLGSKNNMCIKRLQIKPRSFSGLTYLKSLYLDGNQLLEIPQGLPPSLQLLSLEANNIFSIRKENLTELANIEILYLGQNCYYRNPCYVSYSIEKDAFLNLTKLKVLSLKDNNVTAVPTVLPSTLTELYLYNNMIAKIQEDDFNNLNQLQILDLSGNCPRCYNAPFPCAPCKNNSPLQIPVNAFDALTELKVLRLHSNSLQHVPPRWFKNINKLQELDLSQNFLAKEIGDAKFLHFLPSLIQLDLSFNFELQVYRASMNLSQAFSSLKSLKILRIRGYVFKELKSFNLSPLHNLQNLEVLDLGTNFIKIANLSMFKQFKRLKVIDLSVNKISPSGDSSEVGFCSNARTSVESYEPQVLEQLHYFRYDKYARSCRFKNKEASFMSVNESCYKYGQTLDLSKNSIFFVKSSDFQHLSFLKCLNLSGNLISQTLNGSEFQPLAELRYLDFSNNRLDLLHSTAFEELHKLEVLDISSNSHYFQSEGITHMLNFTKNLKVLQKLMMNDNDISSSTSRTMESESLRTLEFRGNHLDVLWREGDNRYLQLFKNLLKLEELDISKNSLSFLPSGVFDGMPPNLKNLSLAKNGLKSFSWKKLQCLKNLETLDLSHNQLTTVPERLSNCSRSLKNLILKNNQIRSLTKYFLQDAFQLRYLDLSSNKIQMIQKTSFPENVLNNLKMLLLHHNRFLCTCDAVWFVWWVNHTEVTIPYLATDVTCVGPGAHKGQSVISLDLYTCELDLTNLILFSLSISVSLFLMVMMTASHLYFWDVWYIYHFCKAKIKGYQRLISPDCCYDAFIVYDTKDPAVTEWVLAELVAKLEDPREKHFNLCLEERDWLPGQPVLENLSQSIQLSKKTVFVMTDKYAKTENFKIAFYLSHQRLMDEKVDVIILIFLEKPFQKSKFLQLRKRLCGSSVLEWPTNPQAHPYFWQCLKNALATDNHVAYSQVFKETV
# Test: HEK293-Blue-hTLR-7 cells assay
# Type: cell-based
# Conditions: HEK293-Blue-hTLR7 cells, SEAP reporter, R848 stimulation, 20 hrs
# Text: HEK293-Blue-hTLR-7 Cells Assay:
# A stable HEK293-Blue-hTLR-7 cell line was purchased from InvivoGen (Cat. #: hkb-htlr7, San Diego, Calif., USA). These cells were originally designed for studying the stimulation of human TLR7 by monitoring the activation of NF-κB. A SEAP (secreted embryonic alkaline phosphatase) reporter gene was placed under the control of the IFN-β minimal promoter fused to five NF-κB and AP-1-binding sites. The SEAP was induced by activating NF-κB and AP-1 via stimulating HEK-Blue hTLR7 cells with TLR7 ligands. Therefore the reporter expression was declined by TLR7 antagonist under the stimulation of a ligand, such as R848 (Resiquimod), for incubation of 20 hrs. The cell culture supernatant SEAP reporter activity was determined using QUANTI-Blue™ kit (Cat. #: rep-qb1, Invivogen, San Diego, Ca, USA) at a wavelength of 640 nm, a detection medium that turns purple or blue in the presence of alkaline phosphatase.
# HEK293-Blue-hTLR7 cells were incubated at a density of 250,000˜450,000 cells/mL in a volume of 170 μL in a 96-well plate in Dulbecco's Modified Eagle's medium (DMEM) containing 4.5 g/L glucose, 50 U/mL penicillin, […], […], 2 mM L-glutamine, 10% (v/v) heat-inactivated fetal bovine serum with addition of 20 sL test compound in a serial dilution in the presence of final DMSO at 1% and 10 μL of 20 uM R848 in above DMEM, perform incubation under 37° C. in a CO2 incubator for 20 hrs. Then 20 μL of the supernatant from each well was incubated with 180 sL Quanti-blue substrate solution at 37° C. for 2 hrs and the absorbance was read at 620-655 nm using a spectrophotometer. The signalling pathway that TLR7 activation leads to downstream NF-κB activation has been widely accepted, and therefore similar reporter assay was modified for evaluating TLR7 antagonist.
row,Compound,IC50
1,"O=C(NC1CC2COCC(C1)N2)C1CN(c2ccc(C(F)(F)F)c3nccnc23)CC12CC2 (stereo not shown) [Example 6, N-(3-oxa-9-azabicyclo[3.3.1]nonan-7-yl)-5-[8-(trifluoromethyl)quinoxalin-5-yl]-5-azaspiro[2.4]heptane-7-carboxamide]",9 nM
2,"O=C(NC1C2CCCC1CNC2)C1CN(c2ccc(C(F)(F)F)c3nccnc23)CC12CC2 (stereo not shown) [Example 8, N-(3-azabicyclo[3.3.1]nonan-9-yl)-5-[8-(trifluoromethyl)quinoxalin-5-yl]-5-azaspiro[2.4]heptane-7-carboxamide]",10 nM
3,"O=C(NC1CC2CCCC(C1)N2)C1CN(c2ccc(C(F)(F)F)c3nccnc23)CC12CC2 (stereo not shown) [Example 10, N-(9-azabicyclo[3.3.1]nonan-3-yl)-5-[8-(trifluoromethyl)quinoxalin-5-yl]-5-azaspiro[2.4]heptane-7-carboxamide]",12 nM
4,"CN1CCC(NC(=O)C2CN(c3ccc(C(F)(F)F)c4nccnc34)CC23CC3)CC1 (stereo not shown) [Example 11, N-(1-methyl-4-piperidyl)-5-[8-(trifluoromethyl)quinoxalin-5-yl]-5-azaspiro[2.4]heptane-7-carboxamide]",13 nM
5,"O=C(NC1C2CCC1CNC2)C1CN(c2ccc(C(F)(F)F)c3nccnc23)CC12CC2 (stereo not shown) [Example 12, N-(3-azabicyclo[3.2.1]octan-8-yl)-5-[8-(trifluoromethyl)quinoxalin-5-yl]-5-azaspiro[2.4]heptane-7-carboxamide]",18 nM
6,"N#Cc1ccc(N2CC(C(=O)NCC3CNCCO3)C3(CC3)C2)c2nccnc12 (stereo not shown) [Example 13, 5-(8-Cyanoquinoxalin-5-yl)-N-(morpholin-2-ylmethyl)-5-azaspiro[2.4]heptane-7-carboxamide]",18 nM
7,"O=C(NC1CC2CNCC(C2)C1)C1CN(c2ccc(C(F)(F)F)c3nccnc23)CC12CC2 (stereo not shown) [Example 15, N-(3-azabicyclo[3.3.1]nonan-7-yl)-5-[8-(trifluoromethyl)quinoxalin-5-yl]-5-azaspiro[2.4]heptane-7-carboxamide]",21 nM
8,"C[C@H]1CN(c2ccc(C#N)c3ncccc23)C[C@@H]1C(=O)NC1CCN(C)CC1 [Example 16, (3R,4R)-1-(8-cyano-5-quinolyl)-4-methyl-N-(1-methyl-4-piperidyl)pyrrolidine-3-carboxamide]",22 nM
9,"CN1CCC(NC(=O)C2CN(c3ccc(C#N)c4ncccc34)CC2C(F)(F)F)CC1 (stereo not shown) [Example 18, 1-(8-Cyano-5-quinolyl)-N-(1-methyl-4-piperidyl)-4-(trifluoromethyl)pyrrolidine-3-carboxamide]",23 nM
10,"CN1CC(NC(=O)C2CN(c3ccc(C(F)(F)F)c4nccnc34)CC23CC3)C2(CC2)C1 (stereo not shown) [Example 20, N-(5-methyl-5-azaspiro[2.4]heptan-7-yl)-5-[8-(trifluoromethyl)quinoxalin-5-yl]-5-azaspiro[2.4]heptane-7-carboxamide]",25 nM
11,"O=C(NC1CC2CNCC2C1)C1CN(c2ccc(C(F)(F)F)c3nccnc23)CC12CC2 (stereo not shown) [Example 21, N-(1,2,3,3a,4,5,6,6a-octahydrocyclopenta[c]pyrrol-5-yl)-5-[8-(trifluoromethyl)quinoxalin-5-yl]-5-azaspiro[2.4]heptane-7-carboxamide]",28 nM
12,"NC1CC2(C1)CC(NC(=O)C1CN(c3ccc(C(F)(F)F)c4nccnc34)CC13CC3)C2 (stereo not shown) [Example 22, N-(6-aminospiro[3.3]heptan-2-yl)-5-[8-(trifluoromethyl)quinoxalin-5-yl]-5-azaspiro[2.4]heptane-7-carboxamide]",28 nM
13,"O=C(NC1CC2CCC(C1)N2)C1CN(c2ccc(C(F)(F)F)c3nccnc23)CC12CC2 (stereo not shown) [Example 23, N-(8-azabicyclo[3.2.1]octan-3-yl)-5-[8-(trifluoromethyl)quinoxalin-5-yl]-5-azaspiro[2.4]heptane-7-carboxamide]",28 nM
14,"N[C@H]1CC[C@H](NC(=O)C2CN(c3ccc(C(F)(F)F)c4nccnc34)CC23CC3)CC1 (stereo partly shown) [Example 24, N-(4-aminocyclohexyl)-5-[8-(trifluoromethyl)quinoxalin-5-yl]-5-azaspiro[2.4]heptane-7-carboxamide]",29 nM
15,"C[C@@H]1CN(c2ccc(C(F)(F)F)c3nccnc23)C[C@H]1C(=O)NC1CCN(C)CC1 [Example 25, (3S,4S)-4-Methyl-N-(1-methyl-4-piperidyl)-1-[8-(trifluoromethyl)quinoxalin-5-yl]pyrrolidine-3-carboxamide]",33 nM
16,"CN(C)CC1CC(NC(=O)C2CN(c3ccc(C(F)(F)F)c4nccnc34)CC23CC3)C1 (stereo not shown) [Example 26, N-[3-[(dimethylamino)methyl]cyclobutyl]-5-[8-(trifluoromethyl)quinoxalin-5-yl]-5-azaspiro[2.4]heptane-7-carboxamide]",36 nM
17,"C[C@H]1CN(c2ccc([N+](=O)[O-])c3ncccc23)C[C@@H]1C(=O)NC1CCN(C)CC1 [Example 27, (3R,4R)-4-Methyl-N-(1-methyl-4-piperidyl)-1-(8-nitro-5-quinolyl)pyrrolidine-3-carboxamide]",38 nM
18,"NC1CC(CNC(=O)C2CN(c3ccc(C(F)(F)F)c4nccnc34)CC23CC3)C1 (stereo not shown) [Example 31, N-[(3-aminocyclobutyl)methyl]-5-[8-(trifluoromethyl)quinoxalin-5-yl]-5-azaspiro[2.4]heptane-7-carboxamide]",41 nM
19,"Cc1ccc(N2C[C@H](C(=O)NC3CCN(C)CC3)[C@@H](C)C2)c2nccnc12 [Example 33, (3R,4R)-4-Methyl-N-(1-methyl-4-piperidyl)-1-(8-methylquinoxalin-5-yl)pyrrolidine-3-carboxamide]",45 nM
20,"O=C(NC1CC2(CCNCC2)C1)C1CN(c2ccc(C(F)(F)F)c3nccnc23)CC12CC2 (stereo not shown) [Example 34, N-(7-azaspiro[3.5]nonan-2-yl)-5-[8-(trifluoromethyl)quinoxalin-5-yl]-5-azaspiro[2.4]heptane-7-carboxamide]",46 nM
21,"N#Cc1ccc(N2C[C@H](C(=O)NC3CCN(C4CCNCC4)CC3)[C@@H](C(F)(F)F)C2)c2nccnc12 [Example 35, (3R,4R)-1-(8-Cyanoquinoxalin-5-yl)-N-[1-(4-piperidyl)-4-piperidyl]-4-(trifluoromethyl)pyrrolidine-3-carboxamide]",55 nM
22,"N[C@@H]1C[C@H](NC(=O)C2CN(c3ccc(C(F)(F)F)c4nccnc34)CC23CC3)[C@@H]2C[C@@H]21 (stereo partly drawn) [Example 36, N-[(1R,2S,4R,5S)-4-amino-2-bicyclo[3.1.0]hexanyl]-5-[8-(trifluoromethyl)quinoxalin-5-yl]-5-azaspiro[2.4]heptane-7-carboxamide]",57 nM
23,"NC1CC(NC(=O)C2CN(c3ccc(C(F)(F)F)c4nccnc34)CC23CC3)C1 (stereo not shown) [Example 38, N-(3-Aminocyclobutyl)-5-[8-(trifluoromethyl)quinoxalin-5-yl]-5-azaspiro[2.4]heptane-7-carboxamide]",59 nM
24,"N[C@H]1CC[C@@H](NC(=O)C2CN(c3ccc(C(F)(F)F)c4nccnc34)CC23CC3)CC1 (stereo partly shown) [Example 39, N-(4-Aminocyclohexyl)-5-[8-(trifluoromethyl)quinoxalin-5-yl]-5-azaspiro[2.4]heptane-7-carboxamide]",74 nM
25,"C[C@H]1CN(c2ccc(C#N)n3nccc23)C[C@@H]1C(=O)NC1CCN(C)CC1 [Example 44, (3R,4R)-1-(7-cyanopyrazolo[1,5-a]pyridin-4-yl)-4-methyl-N-(1-methyl-4 piperidyl)pyrrolidine-3-carboxamide]",84 nM
